Test results as given in patent publication US11034666B2, “Anti-inflammatory and antitumor 2-oxothiazoles and 2-oxothiophenes compounds” (Avexxin AS, priority 2013, dated 2021).

Tests used:
[1] = test system: collagen-induced arthritis (CIA) mouse model; test: Therapeutic collagen-induced arthritis (CIA) study; format: in vivo, male DBA/1 mice; conditions: Days 36 to 41; Compound A 30 mg/kg ip daily; Enbrel 25 mg/kg twice a week
Source text: The therapeutic effect of Compound A on CIA model in male DBA/1 mice following ip administration, treatment starting 7 days after the last immunization was explored. CIA developed rapidly in mice immunized with CII, with maximum AI of 10.2 observed at 39 days post immunization. The AI and incidence of vehicle- and Compound A treated groups increased in a time-dependent mode from Days 29 to 41. […] Compound A and Enbrel performed equally well; there were no significant difference between these treatments groups.
Separate prophylactic and therapeutic efficacy studies of COMPOUND A were performed. […] Body weights were measured and recorded prior to randomization and then once daily during the study. Food consumption was measured and recorded daily. […] Necropsy examinations were performed at study termination; plasma samples were collected, organ weights were recorded […]
CIA Assessment and Treatment. CIA was assessed in mice by two blinded observers to measure paw swelling with a capacity measurement method on Day 0, Day 20, Day 22, Day 25, Day 27, Day 29, Day 32, Day 34, Day 36, Day 39 and Day 41 after the first injection. […] However, the values measured were not included in the mean value calculations of the main groups. […]

[2] = test system: PGE2; test: Plasma PGE2 EIA, therapeutic CIA study; format: in vivo, male DBA/1 mice; conditions: therapeutic CIA study; Compound A 30 mg/kg, Enbrel 25 mg/kg; vehicle 231.1±110; mean ± SD
Method: There were no significant differences between the treatment groups (p>0.05).
(§1) PGE2 EIA analysis of blood plasma from the prophylactic and therapeutic CIA studies was performed according to kit protocol. Plasma samples were diluted 1:1000-1:6000 in EIA buffer and allowed to hybridize over-night (18 hrs, 4° C.). The plate was read using a Multiscan plate reader (Ascent Labsystems) (OD550 nm). The corresponding Ascent software for Multiscan, Version 2.4.1 was used to obtain the data. PGE2 levels for all treatments are shown relative to the DMSO-treated vehicle arthritic mice (n=10-11 mice in each category±SD).
(§2) For the prophylactic and the therapeutic studies, CIA was induced in male DBA/1 mice (except naïve mice) by immunization with 0.1 mL emulsion containing an equal volume of bovine type II collagen solution (2 mg/mL) and Freuds Complete Adjuvant at the tail base. The first injection was given on Day 0 and the second injection as booster was given on Day 21 (41-43). COMPOUND A, vehicle (DMSO) and MTX (0.3 mg/kg) were administered daily, Enbrel (25 mg/kg) was administrated twice a week. For the prophylactic study, treatment started one hour before the second collagen injection and continued for 21 days except for the histology groups that were sacrificed at Day 13 ([…]). For the therapeutic study, treatment started at Day 28 and continued for 14 days.

[3] = test system: collagen-induced arthritis (CIA) mouse model; test: Prophylactic collagen-induced arthritis (CIA) study; format: in vivo, male DBA/1 mice
Method: The prophylactic effect of Compound A on CIA model in male DBA/1 mice^57 following intraperitoneal (ip) administration, treatment starting 1 hour prior to the last immunization was studied. A study comparing naïve mice (healthy, non-CIA, non-treated), vehicle-treated mice (CIA with DMSO, ip) and CIA mice treated daily with Compound A (7.5 mg/kg, ip) or MTX (0.3 mg/kg, ip) was performed. CIA developed rapidly in mice immunized with CII. In the prophylactic study, a 100% incidence of CIA was observed by day 29 in CII-immunized mice, with maximum AI of 8.55 observed at 41 days post immunization. The AI and incidence of all groups increased in a time-dependent mode from day 25 to day 41.
Separate prophylactic and therapeutic efficacy studies of COMPOUND A were performed. Methotrexate (MTX) (Jiangsu Hengrui Medicine Co, #11041411), Enbrel (Boehringer Ingelheim Pharma KG, # F39487), and vehicle (DMSO 100%, Sigma Aldrich # D2650) were administered to all groups via intraperitoneal injection once daily at a dose volume of 2 mL/kg. Observations for morbidity, mortality, injury, and the availability of food and water were conducted twice daily for all animals. Clinical observations were conducted daily during the study. Body weights were measured and recorded prior to randomization and then once daily during the study. Food consumption was measured and recorded daily. Biopsies for mid-term histology analysis were obtained on Day 13 in the prophylactic study. Necropsy examinations were performed at study termination; plasma samples were collected, organ weights were recorded
as §2
CIA Assessment and Treatment. CIA was assessed in mice by two blinded observers to measure paw swelling with a capacity measurement method on Day 0, Day 20, Day 22, Day 25, Day 27, Day 29, Day 32, Day 34, Day 36, Day 39 and Day 41 after the first injection. The occurrence of arthritis was observed by scoring all paws for severity of erythema and swelling, using a clinical score ranging from 0 (no swelling) to 4 (severe swelling and erythema). The physical condition of the animals was observed daily. Scores and overall evaluation of the histology group arms were performed in the same way as the main groups. However, the values measured were not included in the mean value calculations of the main groups. The YLS-7B Foot Volume Measuring Instrument (Huaibei China Bio Equipment) was used to measure the foot volume of mice. The occurrence of arthritis was observed by scoring all paws for severity of erythema and swelling, using a clinical score ranging from 0 (no swelling) to 4 (severe swelling and erythema), i.e. yielding maximum arthritic index (AI) score 16 (46).
Measurement of the histopathology and clinical observations. At the end of the studies, one hind foot of each mouse was collected for histopathology. The foot including the ankle was fixed in 10% neutral formalin. The ankle joints were decalcified, dehydrated, embedded in paraffin, sectioned and stained with routine hematoxylin-eosin. The sections were studied using light microscopy (10×10 and 20×10 magnifications). Arthritis damage (histological damage score) was evaluated and scored by an investigator blinded for the treatment regimen. […]

[4] = test system: PGE2; test: Plasma PGE2 EIA, prophylactic CIA study; format: in vivo, male DBA/1 mice; conditions: prophylactic CIA study; Compound A 7.5 mg/kg, MTX 0.3 mg/kg; vehicle 223.4±107; mean ± SD
Method: PGE2 is recognized as an important contributor to the joint inflammation in rheumatoid arthritis,^60 and we investigated if plasma PGE2 levels were changed in response to treatment. […] There were no significant differences between the treatment groups (p>0.05).
as §1, §2

[5] = test system: MAS98.12 xenograft; conditions: FIG. 1; data from an earlier study in the same animal model [13]; cited from earlier work
[6] = test system: rat streptozocin-induced model of human chronic renal disease; test: Rat streptozocin-induced model of human chronic renal disease, urine protein; format: in vivo, Sprague Dawley rats; conditions: AVX235 10 mg/kg ip; losartan 30 mg/kg oral gavage daily; 2 weeks
Method: The therapeutic effect of AVX235 was tested in the rat streptozocin-induced model of human chronic renal disease and compared against losartan (positive control).
Sprague Dawley rats (Harlan laboratories, USA) of an average weight of 130-150 grams were divided in groups of 8 animals per group and were treated according to table 7:
AVX235 was injected intraperitoneally, once daily for the first 4 days and then every two days. Losartan was administered daily, by oral gavage. At 2 weeks post experiment initiation, urine was collected over a period of 24 h and total protein in mg was measured.

[7] = hind paw, Compound A 7.5 mg/kg, MTX 0.3 mg/kg

## Enbrel
[1]
  arthritic index (AI) in comparison to the CIA control group (in words): significantly decreased
[2]
  plasma PGE2 level: 187.5 ± 74 ng/mL

## CN(Cc1cnc2nc(N)nc(N)c2n1)c1ccc(C(=O)N[C@@H](CCC(=O)O)C(=O)O)cc1 [MTX, Methotrexate, reference compound]
[3]; Days 32 to 41, Compound A 7.5 mg/kg ip daily, MTX 0.3 mg/kg ip daily
  arthritic index (AI) in comparison to the CIA control group (in words): significantly reduced
[3]; [7]
  articular cavity and peripheral tissue inflammatory cell infiltration, histopathology vs vehicle (in words): did not reduce
  capillary and synovial hyperplasia, histopathology vs vehicle (in words): did not reduce
  cartilage damage, histopathology vs vehicle (in words): did not reduce
[4]
  plasma PGE2 level: 107.3 ± 62 ng/mL

## Cn1c(=O)n(-c2ccc(C(C)(C)C#N)cc2)c2c3cc(-c4cnc5ccccc5c4)ccc3ncc21 [BEZ235]
[5]
  tumor volume (in words): tumor volumes are reduced

## CCCCc1nc(Cl)c(CO)n1Cc1ccc(-c2ccccc2-c2nn[nH]n2)cc1 [losartan]
[6]
  therapeutic effect on STZ-induced urine protein (in words): protected rats from the STZ effect
